The values that follow come from US20250320206A1, “STAT6 DEGRADERS” (Gilead Sciences, Inc., priority 2024, published 2025).

The target in one assay is T1, STAT6 (Homo sapiens, UniProt P42226).
T1 construct: These cells express endogenous STAT6; host or cells: HeLa LgBiT clone 4.14
T1 sequence (P42226 1-847): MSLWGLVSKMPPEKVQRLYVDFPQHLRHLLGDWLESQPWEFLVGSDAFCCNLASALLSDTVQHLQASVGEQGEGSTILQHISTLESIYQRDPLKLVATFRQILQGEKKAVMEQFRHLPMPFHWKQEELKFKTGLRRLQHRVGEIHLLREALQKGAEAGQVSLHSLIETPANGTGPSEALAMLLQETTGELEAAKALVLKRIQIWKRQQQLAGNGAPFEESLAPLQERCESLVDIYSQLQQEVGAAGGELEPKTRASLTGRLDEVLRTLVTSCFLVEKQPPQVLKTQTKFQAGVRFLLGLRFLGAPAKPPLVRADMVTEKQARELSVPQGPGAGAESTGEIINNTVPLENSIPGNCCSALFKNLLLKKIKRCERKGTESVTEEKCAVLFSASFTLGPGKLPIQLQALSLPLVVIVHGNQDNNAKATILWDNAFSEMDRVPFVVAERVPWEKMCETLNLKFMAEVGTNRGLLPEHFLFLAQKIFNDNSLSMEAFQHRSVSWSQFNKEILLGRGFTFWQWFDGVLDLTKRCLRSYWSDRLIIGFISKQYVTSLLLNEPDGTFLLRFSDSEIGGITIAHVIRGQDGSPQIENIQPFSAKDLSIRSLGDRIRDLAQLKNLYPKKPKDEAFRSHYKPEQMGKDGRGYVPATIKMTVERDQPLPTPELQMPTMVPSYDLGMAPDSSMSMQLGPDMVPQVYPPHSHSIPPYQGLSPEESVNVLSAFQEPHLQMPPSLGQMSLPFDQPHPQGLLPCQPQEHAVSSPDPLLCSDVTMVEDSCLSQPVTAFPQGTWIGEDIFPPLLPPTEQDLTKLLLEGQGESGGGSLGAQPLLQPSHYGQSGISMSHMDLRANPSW
Briefly: Stat6 Degrader Assay (HiBiT based, HeLa LgBiT clone 4.14). Type of assay: cell-based. The following applies: HeLa LgBiT clone 4.14 HiBiT-STAT6, 4-24 h incubation; values given for compounds with >80% Emax; geometric mean; read-out: STAT6 degradation DC50. The gist of the method: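 HeLa LgBiT clone 4.14 cells with CRISPR HiBiT-tagged endogenous STAT6, 5000 cells/well, compound dosed then incubated 4-24 h at 37° C, 5% CO2. Nano-Glo substrate added, 0.5 h, luminescence read as non-degraded STAT6. Terfenadine 50 μM (cell kill) defines 100% degradation.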
(In general: HiBiT is a short tag that completes a luciferase, so light tracks the accessible tagged protein.)

The subject of assay [1] is Eotaxin-3 release in human whole blood stimulated with IL-4. Put plainly: Human Whole Blood Eotaxin-3 Assay (IL-4 stimulated eotaxin-3 release). Type of assay: cell-based. The following applies: IL-4 stimulation, 48 h, values given for compounds with >80% Emax, geometric mean. The gist of the method:
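Lithium-heparin human whole blood preincubated 2 h at 37° C with 4-fold serially diluted compounds (0.5% DMSO), then stimulated with recombinant human IL-4 ([…]) for 48 h. Eotaxin-3 (CCL26) in supernatant quantified by MSD immunoassay.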

What is called DC50 is the concentration at which degradation of the target reaches its halfway point. As a reminder, the EC50 is the concentration needed to bring the measured effect to its halfway point. For the molecule `CNc1cc(=O)n(-c2ccnc3c2cc(CN2CC=C(c4c(F)cc(C(=O)N5CCC(CN6CCN(Cc7ccc8c(c7)n(C7CC7)c(=O)n8[C@@H]7CCC(=O)NC7=O)C[C@@H]6C)CC5)cc4F)CC2)n3C)cc1F` (single isomer, unassigned) [Example 3u215], on STAT6, the DC50 was 3.5 nM. In assay [1], this molecule returned an EC50 of 5.6 nM.

Take `CNc1ccn(-c2ccnc3c2cc(CN2CCC(c4c(F)cc(C(=O)N5CCC(CN6CCN(Cc7ccc8c(c7)n(C7CC7)c(=O)n8[C@H]7CCC(=O)NC7=O)C[C@@H]6C)CC5)cc4F)CC2)n3C)c(=O)c1` (single isomer, unassigned) [Example 3u217]: the DC50 on STAT6 is 1.8 nM. Moreover, in assay [1], it took 0.6 nM to reach a half-maximal effect (EC50).

On to `CNc1ccn(-c2ccnc3c2cc(CN2CCC(c4c(F)cc(C(=O)N5CCC(CN6CCN(Cc7ccc8c(c7)n(C7CC7)c(=O)n8[C@@H]7CCC(=O)NC7=O)C[C@@H]6C)CC5)cc4F)CC2)n3C)c(=O)c1` (single isomer, unassigned) [Example 3u218], for which, on STAT6, the DC50 was determined as 2.6 nM. Moreover, in assay [1], the EC50 is 0.8 nM.

As for `CNc1cc(=O)n(-c2ccnc3c2cc(CN2CCC(c4c(F)cc(C(=O)N5CCC(CN6CCN(Cc7ccc8c(c7)C7(CC7)C(=O)N8[C@H]7CCC(=O)NC7=O)C[C@@H]6C)CC5)cc4F)CC2)n3C)cc1F` (single isomer, unassigned) [Example 3u220], on STAT6, the DC50 is 1.3 nM. For the same molecule, the EC50 in assay [1] came out at 2.4 nM.

As to `CNc1cc(=O)n(-c2ccnc3c2cc(CN2CCC(c4c(F)cc(C(=O)N5CCC(CN6CCN(Cc7ccc8c(c7)C7(CC7)C(=O)N8[C@@H]7CCC(=O)NC7=O)C[C@@H]6C)CC5)cc4F)CC2)n3C)cc1F` (single isomer, unassigned) [Example 3u221], on STAT6, the DC50 turned out to be 1.9 nM. Moreover, in assay [1], the EC50 came to 4.5 nM.

Regarding `CNc1ccn(-c2ccnc3c2cc(CN2CCC(c4c(F)cc(C(=O)N5CCC(CN6CCN(Cc7ccc8c(c7)C7(CC7)C(=O)N8[C@H]7CCC(=O)NC7=O)C[C@@H]6C)CC5)cc4F)CC2)n3C)c(=O)c1` (single isomer, unassigned) [Example 3u223], the DC50 at STAT6 is 0.9 nM. The molecule further had a concentration giving a half-maximal response (EC50) in assay [1] of 1.3 nM.

For `CNc1ccn(-c2ccnc3c2cc(CN2CCC(c4c(F)cc(C(=O)N5CCC(CN6CCN(Cc7ccc8c(c7)C7(CC7)C(=O)N8[C@@H]7CCC(=O)NC7=O)C[C@@H]6C)CC5)cc4F)CC2)n3C)c(=O)c1` (single isomer, unassigned) [Example 3u224], the DC50 at STAT6 was determined as 1.3 nM. Besides, in assay [1], the half-maximal effective concentration (EC50) was 1.5 nM.

With `CNc1ccn(-c2ccnc3c2cc([C@H](C)N2CC=C(c4c(C)cc(C(=O)N(C)c5ccc(C6CCN(Cc7ccc8c(c7)n(C)c(=O)n8[C@H]7CCC(=O)NC7=O)CC6)cc5)cc4F)CC2)n3C)c(=O)c1` (single isomer, unassigned) [Example 3u226], at STAT6, the DC50 was 0.05 nM. The molecule also showed an EC50 in assay [1] of 0.2 nM.

`CNc1ccn(-c2ccnc3c2cc([C@H](C)N2CC=C(c4c(C)cc(C(=O)N(C)c5ccc(C6CCN(Cc7ccc8c(c7)n(C)c(=O)n8[C@@H]7CCC(=O)NC7=O)CC6)cc5)cc4F)CC2)n3C)c(=O)c1` (single isomer, unassigned) [Example 3u227]: the DC50 on STAT6 came to 0.04 nM. For the same molecule, the midpoint of the response in assay [1], the EC50, lay at 0.3 nM.

Take `CNc1ccn(-c2ccnc3c2cc(CN2CC=C(c4c(C)cc(C(=O)N(C)c5ccc(C6CCN(Cc7ccc8c(c7)C(C)(C)C(=O)N8[C@H]7CCC(=O)NC7=O)CC6)cc5)cc4F)CC2)n3C)c(=O)c1` (single isomer, unassigned) [Example 3u229]: the DC50 on STAT6 was 0.3 nM. In assay [1], this molecule returned an EC50 of 1.6 nM.

Consider `CNc1ccn(-c2ccnc3c2cc(CN2CC=C(c4c(C)cc(C(=O)N(C)c5ccc(C6CCN(Cc7ccc8c(c7)C(C)(C)C(=O)N8[C@@H]7CCC(=O)NC7=O)CC6)cc5)cc4F)CC2)n3C)c(=O)c1` (single isomer, unassigned) [Example 3u230], for which, at STAT6, the DC50 is 0.4 nM. Besides, in assay [1], the EC50 is 2 nM.

Consider `CNc1cc(=O)n(-c2ccnc3c2cc([C@H](C)N2CC=C(c4c(C)cc(C(=O)N(C)c5ccc(C6CCN(Cc7ccc8c(c7)C(C)(C)C(=O)N8[C@@H]7CCC(=O)NC7=O)CC6)cc5)cc4F)CC2)n3C)cc1F` (single isomer, unassigned) [Example 3u235], for which the DC50 on STAT6 was 0.1 nM. The same molecule showed an EC50 in assay [1] of 1.4 nM.

`CNc1cc(=O)n(-c2ccnc3c2cc([C@H](C)N2CC=C(c4c(C)cc(C(=O)N(C)c5ccc(N6CCC(Cc7ccc8c(c7)n(C)c(=O)n8[C@H]7CCC(=O)NC7=O)CC6)nc5)cc4F)CC2)n3C)cc1F` (single isomer, unassigned) [Example 3u242]: the DC50 on STAT6 stood at 0.2 nM. This molecule also showed an EC50 in assay [1] of 0.2 nM.

Take `CNc1cc(=O)n(-c2ccnc3c2cc([C@H](C)N2CC=C(c4c(C)cc(C(=O)N(C)c5ccc(N6CCC(Cc7ccc8c(c7)n(C)c(=O)n8[C@@H]7CCC(=O)NC7=O)CC6)nc5)cc4F)CC2)n3C)cc1F` (single isomer, unassigned) [Example 3u243]: at STAT6, the DC50 amounted to 0.3 nM. In assay [1], this molecule showed an EC50 of 0.4 nM.

In the case of `CNc1ccn(-c2ccnc3c2cc([C@H](C)N2CC=C(c4c(C)cc(C(=O)N5CCC(CN6CCN(c7ccc8c(c7)n(C7CC7)c(=O)n8[C@H]7CCC(=O)NC7=O)CC6)CC5)cc4F)CC2)n3C)c(=O)c1` (single isomer, unassigned) [Example 3u279], the DC50 at STAT6 was 1.4 nM. The molecule also returned an EC50 in assay [1] of 1.7 nM.

On to `CNc1ccn(-c2ccnc3c2cc([C@H](C)N2CC=C(c4c(C)cc(C(=O)N5CCC(CN6CCN(c7ccc8c(c7)C(C)(C)C(=O)N8[C@@H]7CCC(=O)NC7=O)CC6)CC5)cc4F)CC2)n3C)c(=O)c1` (single isomer, unassigned) [Example 3u281], for which the DC50 at STAT6 came to 4 nM. The molecule also had an EC50 in assay [1] of 4.2 nM.

Consider `CNc1cc(=O)n(-c2ccnc3c2cc([C@H](C)N2CC=C(c4c(C)cc(C(=O)N5CCC(CN6CCN(c7ccc8c(c7)C(C)(C)C(=O)N8[C@H]7CCC(=O)NC7=O)CC6)CC5)cc4F)CC2)n3C)cc1F` (single isomer, unassigned) [Example 3u285], for which the DC50 on STAT6 is 7.8 nM. Besides, the EC50 in assay [1] was 101 nM.

For the molecule `CNc1cc(=O)n(-c2ccnc3c2cc([C@H](C)N2CC=C(c4c(C)cc(C(=O)N5CCC(CN6CCN(c7ccc8c(c7)C(C)(C)C(=O)N8[C@@H]7CCC(=O)NC7=O)CC6)CC5)cc4F)CC2)n3C)cc1F` (single isomer, unassigned) [Example 3u286], at STAT6, the DC50 stood at 12.5 nM. In assay [1], this molecule yielded a half-maximal effective concentration (EC50) of 25.2 nM.

For `CNc1cc(=O)n(-c2ccnc3c2cc([C@H](C)N2CC=C(c4c(C)cc(C(=O)N5CCC(CN6CCN(c7ccc8c(c7)C7(CC7)C(=O)N8[C@H]7CCC(=O)NC7=O)CC6)CC5)cc4F)CC2)n3C)cc1F` (single isomer, unassigned) [Example 3u291], the DC50 on STAT6 came to 5.7 nM. In addition, the midpoint of the response in assay [1], the EC50, lay at 21.7 nM.

As for `CNc1cc(=O)n(-c2ccnc3c2cc([C@H](C)N2CC=C(c4c(C)cc(C(=O)N5CCC(CN6CCN(c7ccc8c(c7)C7(CC7)C(=O)N8[C@@H]7CCC(=O)NC7=O)CC6)CC5)cc4F)CC2)n3C)cc1F` (single isomer, unassigned) [Example 3u292], the DC50 at STAT6 stood at 5.1 nM. In assay [1], this molecule gave an EC50 of 6.9 nM.

On to `CNc1ccn(-c2ccnc3c2cc([C@H](C)N2CC=C(c4c(C)cc(C(=O)N5CCC(CN6CCN(c7ccc8c(c7)n(C)c(=O)n8[C@H]7CCC(=O)NC7=O)CC6)CC5)cc4F)CC2)n3C)c(=O)c1` (single isomer, unassigned) [Example 3u293], for which the DC50 at STAT6 was determined as 1 nM. In addition, it took 0.8 nM to reach a half-maximal effect in assay [1] (EC50).

Take `CNc1ccn(-c2ccnc3c2cc([C@H](C)N2CC=C(c4c(C)cc(C(=O)N5CCC(CN6CCN(c7ccc8c(c7)n(C)c(=O)n8[C@@H]7CCC(=O)NC7=O)CC6)CC5)cc4F)CC2)n3C)c(=O)c1` (single isomer, unassigned) [Example 3u294]: the DC50 at STAT6 was 0.8 nM. The concentration giving a half-maximal response (EC50) in assay [1] stood at 0.3 nM.

Turning to `CNc1cc(=O)n(-c2ccnc3c2cc([C@H](C)N2CC=C(c4c(C)cc(C(=O)N5CCC(CN6CCN(c7ccc8c(c7)n(C)c(=O)n8[C@H]7CCC(=O)NC7=O)CC6)CC5)cc4F)CC2)n3C)cc1F` (single isomer, unassigned) [Example 3u296], on STAT6, the 50% degradation concentration (DC50) worked out at 2.7 nM. In addition, the EC50 in assay [1] turned out to be 5.8 nM.

As for `CNc1cc(=O)n(-c2ccnc3c2cc([C@H](C)N2CC=C(c4c(C)cc(C(=O)N5CCC(CN6CCN(c7ccc8c(c7)n(C)c(=O)n8[C@@H]7CCC(=O)NC7=O)CC6)CC5)cc4F)CC2)n3C)cc1F` (single isomer, unassigned) [Example 3u297], the DC50 at STAT6 was 2.2 nM. The EC50 in assay [1] worked out at 3.2 nM.
